The series is described as follows: Solubility of paclitaxel in the hydrophilic liquid core solvents. The following applies: solvents such as DMSO and DENA.

Each structure is given as a SMILES string.

On to `CC(=O)O[C@H]1C(=O)[C@@]2(C)[C@H]([C@H](OC(=O)c3ccccc3)[C@]3(O)C[C@H](OC(=O)[C@H](O)[C@@H](NC(=O)c4ccccc4)c4ccccc4)C(C)=C1C3(C)C)[C@]1(OC(C)=O)CO[C@@H]1C[C@@H]2O` [paclitaxel], for which the “concentration at which the drug may be dissolved in liquid core” value is 10-60 weight percent.

Values taken from patent publication US20070031504A1, “Microdevices comprising nanocapsules for controlled delivery of drugs and method of manufacturing same” (MIV Therapeutics Inc., priority 2005, published 2007).
